Laboratory results from patent US11466286B2, “Methods and compositions for conferring and/or enhancing herbicide tolerance using protoporphyrinogen oxidase or variant thereof” (FarmHannong Co., Ltd., priority 2016, dated 2022).

Assays:
[1] = biological target: CyPPO10 (Thermosynechococcus elongatus BP-1 PPO, SEQ ID NO: 2), wild type, MBP fusion (Thermosynechococcus vestitus, UniProt Q8DLV2); assay: PPO inhibition assay; format: biochemical
[2] = biological target: CyPPO10 (Thermosynechococcus elongatus BP-1 PPO, SEQ ID NO: 2) variant F360M, MBP fusion (Thermosynechococcus vestitus, UniProt Q8DLV2, F360M); assay: biochemical
Sequence of CyPPO10 (Thermosynechococcus elongatus BP-1 PPO, SEQ ID NO: 2) variant F360M, MBP fusion (Q8DLV2 entry or part of it F360M): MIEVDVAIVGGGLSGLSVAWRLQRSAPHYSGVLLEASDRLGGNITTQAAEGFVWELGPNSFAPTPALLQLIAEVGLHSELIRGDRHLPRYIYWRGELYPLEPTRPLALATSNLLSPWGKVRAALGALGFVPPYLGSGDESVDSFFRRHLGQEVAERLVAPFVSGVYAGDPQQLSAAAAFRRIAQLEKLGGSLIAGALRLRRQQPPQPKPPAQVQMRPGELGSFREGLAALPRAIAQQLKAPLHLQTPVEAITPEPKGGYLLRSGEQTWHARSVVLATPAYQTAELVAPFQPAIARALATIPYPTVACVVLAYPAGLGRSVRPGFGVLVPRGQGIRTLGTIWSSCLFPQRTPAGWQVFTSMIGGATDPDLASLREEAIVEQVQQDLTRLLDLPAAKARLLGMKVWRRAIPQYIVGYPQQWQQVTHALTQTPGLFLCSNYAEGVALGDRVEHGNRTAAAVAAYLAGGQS

[3] = biological target: CyPPO10 (Thermosynechococcus elongatus BP-1 PPO, SEQ ID NO: 2) variant F360I, MBP fusion (Thermosynechococcus vestitus, UniProt Q8DLV2, F360I); assay: PPO inhibition assay; format: biochemical
Sequence of CyPPO10 (Thermosynechococcus elongatus BP-1 PPO, SEQ ID NO: 2) variant F360I, MBP fusion (Q8DLV2 entry or part of it F360I): as the sequence (Q8DLV2 entry or part of it F360M) above, with M360I counted along it

[4] = biological target: CyPPO10 (Thermosynechococcus elongatus BP-1 PPO, SEQ ID NO: 2) variant R89A + F360M, MBP fusion (Thermosynechococcus vestitus, UniProt Q8DLV2, F360M/R89A); assay: biochemical; settings: herbicide 0-5,000 nM, 50 μM substrate
Sequence of CyPPO10 (Thermosynechococcus elongatus BP-1 PPO, SEQ ID NO: 2) variant R89A + F360M, MBP fusion (Q8DLV2 entry or part of it R89A/F360M): as the sequence (Q8DLV2 entry or part of it F360M) above, with R89A counted along it

[5] = biological target: CyPPO10 (Thermosynechococcus elongatus BP-1 PPO, SEQ ID NO: 2) variant R89A + F360I, MBP fusion (Thermosynechococcus vestitus, UniProt Q8DLV2, F360I/R89A); assay: biochemical
Sequence of CyPPO10 (Thermosynechococcus elongatus BP-1 PPO, SEQ ID NO: 2) variant R89A + F360I, MBP fusion (Q8DLV2 entry or part of it R89A/F360I): as the sequence (Q8DLV2 entry or part of it F360M) above, with R89A, M360I counted along it

[6] = test system: CyPPO13 (Synechococcus sp. JA-3-3Ab PPO, SEQ ID NO: 4), wild type, MBP fusion; assay: PPO inhibition assay; format: biochemical; settings: herbicide 0-5,000 nM, 50 μM substrate
[7] = test system: CyPPO13 (Synechococcus sp. JA-3-3Ab PPO, SEQ ID NO: 4) variant F373M, MBP fusion; assay: PPO inhibition assay; format: biochemical; settings: herbicide 0-5,000 nM, 50 μM substrate
[8] = test system: CyPPO13 (Synechococcus sp. JA-3-3Ab PPO, SEQ ID NO: 4) variant F373I, MBP fusion; assay: PPO inhibition assay; format: biochemical; settings: herbicide 0-5,000 nM, 50 μM substrate
Description: (§1) The enzyme activities of PPO protein and PPO protein variants were examined, and inhibition assay by PPO-inhibiting herbicides was conducted. It was confirmed that the PPO protein has low water-solubility, but in case of being expressed as a fusion protein with MBP (maltose binding protein) (MBP-PPO), the PPO protein is able to be stably expressed as water-soluble form. Therefore, the wild type and variant proteins which were expressed in the form of fusion protein with MBP were used in the present test (refer to FIG. 4).
(§2) At first, a substrate of PPO protein, Protoporphyrinogen IX was synthesized. This process was performed in the space where nitrogen gas is streamed. 6 mg of protoporphyrin IX was dissolved in 20% (v/v) EtOH 20 ml, and stirred under dark condition for 30 minutes. The obtained protoporphyrinogen IX solution was put into a 15 ml screw tube in an amount of 800 and flushed with nitrogen gas for 5 minutes. To this, 1 g of sodium amalgam was added and vigorous shaking was performed for 2 minutes. The lid was open to exhaust hydrogen gas in the tube. Thereafter, the lid was closed and incubated for 3 minutes. The […] was filtered using syringe and cellulose membrane filter. To 600 μl of the obtained […], 2M MOPS [3-(N-morpholino)propanesulfonic acid] was added in an amount of approximately 300 thereby adjusting pH to 8.0. To determine the enzyme activity of PPO protein, a reaction mixture was prepared with the following composition (based on 10 ml): 50 mM Tris-Cl (pH 8.0); 50 mM NaCl; 0.04% (v/v) Tween 20; 40 mM glucose (0.072 g); 5 units glucose oxidase (16.6 mg); and 10 units catalase (1 μl).
(§3) Two hundred microliters (200 μl) of reaction mixture containing a purified PPO protein were placed in 96 well plates, and preincubated for 30 min at room temperature to reduce the oxygen concentration by the reaction of glucose oxidase-catalase. The mineral oil was layered and then the reaction was initiated by adding the substrate, protoporphyrin IX solution, to a final concentration of 50 μM. The reaction proceeded at room temperature for 30 min and the fluorescence of protoporphyrin IX was measured using Microplate reader (Sense, Hidex) (excitation: 405 nm; emission: 633 nm). To calculate the PPO enzyme activity, protoporphyrinogen IX solution was kept open in the air to oxidize the solution (overnight). To this, 2.7N HCl was added, and the absorbance at 408 nm was measured. A standard curve was generated using standard protoporphyrin IX, and the PPO activity was measured by calibration of protoporphyrin IX using the standard curve of protoporphyrin IX.
(§4) The final concentration of each herbicide was as follows: […]

[9] = test system: CyPPO13 (Synechococcus sp. JA-3-3Ab PPO, SEQ ID NO: 4) variant F373L, MBP fusion; assay: PPO inhibition assay; format: biochemical; settings: herbicide 0-5,000 nM, 50 μM substrate
Description: as §1, §2, §3, §4

[10] = test system: BT3 (ΔPPO) E. coli with CyPPO10m-6 (E225G, G258S, Q266L, T336I, V356F, F360M, A364D, R406G, W419R; SEQ ID NO: 131); assay: Growth of BT3 with error-prone PCR mutant of CyPPO10; format: cell-based; settings: up to 200 μM herbicide
[11] = test system: soybean transformed with CyPPO10 A167L+F360M; assay: Herbicide tolerance of soybean; format: in vivo; settings: T1, 150 μM saflufenacil spray, 5 days
[12] = biological target: T1, CyPPO10 (Thermosynechococcus elongatus BP-1 protoporphyrinogen oxidase, wild type, SEQ ID NO: 2), MBP fusion (Thermosynechococcus vestitus, UniProt Q8DLV2); assay: Michaelis-Menten kinetics of purified PPO; format: biochemical; settings: protoporphyrinogen IX oxidation, room temperature, pH 8.0
T1 construct: kinetics with protoporphyrinogen IX
T1 sequence (Q8DLV2 1-467): as the sequence (Q8DLV2 entry or part of it F360M) above, with M360F counted along it
Description: as §1
At first, a substrate of PPO protein, Protoporphyrinogen IX was synthesized. This process was performed in the space where nitrogen gas is streamed. […]
as §3, with “The mineral oil was layered and then the reaction was initiated by adding the substrate, protoporphyrin IX solution, to a final concentration of 50 μM.” left out, “To calculate the PPO enzyme activity, protoporphyrinogen IX solution was kept open in the air to oxidize the solution (overnight).” left out, “IX. […]” for “IX.”

[13] = test system: CyPPO13 (Synechococcus sp. JA-3-3Ab protoporphyrinogen oxidase, wild type, SEQ ID NO: 4), MBP fusion; assay: Michaelis-Menten kinetics of purified PPO; format: biochemical; settings: protoporphyrinogen IX oxidation, room temperature, pH 8.0
[14] = biological target: A. thaliana PPO1 (AtPPO1) (Arabidopsis thaliana, UniProt P55826); assay: Michaelis-Menten kinetics of PPO (plant control); format: biochemical; settings: protoporphyrinogen IX oxidation
Sequence of A. thaliana PPO1 (AtPPO1) (P55826 35-537): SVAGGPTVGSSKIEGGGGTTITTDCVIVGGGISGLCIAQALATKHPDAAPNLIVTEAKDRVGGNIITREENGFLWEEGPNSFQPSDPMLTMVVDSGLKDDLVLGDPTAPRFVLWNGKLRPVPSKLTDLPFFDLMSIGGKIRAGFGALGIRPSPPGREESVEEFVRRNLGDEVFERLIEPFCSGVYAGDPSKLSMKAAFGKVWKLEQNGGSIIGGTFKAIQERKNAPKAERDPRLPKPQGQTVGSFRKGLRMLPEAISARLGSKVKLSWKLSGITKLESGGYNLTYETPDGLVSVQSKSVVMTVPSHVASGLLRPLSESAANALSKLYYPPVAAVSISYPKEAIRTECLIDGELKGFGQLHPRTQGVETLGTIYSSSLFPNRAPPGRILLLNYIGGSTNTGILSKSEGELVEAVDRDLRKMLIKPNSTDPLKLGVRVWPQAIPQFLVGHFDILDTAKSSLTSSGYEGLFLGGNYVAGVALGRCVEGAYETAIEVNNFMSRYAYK

Amaranthus PPO1 = assay: Michaelis-Menten kinetics of PPO (plant control); format: biochemical; settings: protoporphyrinogen IX oxidation
CyPPO10 = assay: PPO enzyme activity and IC50 by herbicides, CyPPO10 wild type and variants (MBP-PPO fusion); format: biochemical, Thermosynechococcus elongatus BP-1; settings: PPO enzyme activity of CyPPO10 protein, wild type = 100
Summary of the method: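 MBP-fused wild-type and variant CyPPO10 or CyPPO13 were expressed in E. coli BL21(DE3) and purified. After a 30 min oxygen-depleting preincubation with glucose oxidase-catalase in 50 mM Tris-Cl pH 8.0, 50 mM NaCl and 0.04% Tween 20, reactions used 50 μM substrate for 30 min at room temperature. Protoporphyrin IX fluorescence (ex 405/em 633 nm) was quantified against a standard curve.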

A. thaliana = assay: Herbicide spray on A. thaliana transformants, injury level judged at the 7th day; format: in vivo, Arabidopsis thaliana; settings: A. thaliana transformants T2, tiafenacil 25 μM spray

Sequence of CyPPO10 (Thermosynechococcus elongatus BP-1 PPO, SEQ ID NO: 2), wild type, MBP fusion (Q8DLV2 1-467): as the sequence (Q8DLV2 entry or part of it F360M) above, with M360F counted along it

Molecule: C=CCOC(=O)C(C)(C)OC(=O)c1cc(-n2c(=O)cc(C(F)(F)F)n(C)c2=O)ccc1Cl [Butafenacil]
- IC50 [1]: 8 nM
- IC50 [2]: 24 nM
- IC50 [3]: 268 nM
- IC50 [4]: 674 nM
- IC50 [5]: 1320 nM
- IC50 [6]: 37 nM

Molecule: CC(C)N(C)S(=O)(=O)NC(=O)c1cc(-n2c(=O)cc(C(F)(F)F)n(C)c2=O)c(F)cc1Cl [Saflufenacil]
- IC50 [7]: 481 nM
- IC50 [8]: 1480 nM
- IC50 [9]: 1470 nM
- cell viability [10]: cell viability similar to that of cells with wild type CyPPO10
- damage level [11]: no damage

Molecule: C=Cc1c2[nH]c(c1C)Cc1[nH]c(c(CCC(=O)O)c1C)Cc1[nH]c(c(C)c1CCC(=O)O)Cc1[nH]c(c(C)c1C=C)C2 [Protoporphyrinogen IX]
- Vmax [12]: 949.1 ± 64 μM mg protein^−1 min^−1
- Vmax [13]: 341.4 ± 14 μM mg protein^−1 min^−1
- Vmax [14]: 134.4 ± 19 μM mg protein^−1 min^−1
- Vmax (Amaranthus PPO1): 57 ± 7 μM mg protein^−1 min^−1

B1: CyPPO10 A167C + F360I: CyPPO10 (SEQ ID NO: 2) PPO variant (protein)
chain: MIEVDVAIVGGGLSGLSVAWRLQRSAPHYSGVLLEASDRLGGNITTQAAEGFVWELGPNSFAPTPALLQLIAEVGLHSELIRGDRHLPRYIYWRGELYPLEPTRPLALATSNLLSPWGKVRAALGALGFVPPYLGSGDESVDSFFRRHLGQEVAERLVAPFVSGVYCGDPQQLSAAAAFRRIAQLEKLGGSLIAGALRLRRQQPPQPKPPAQVQMRPGELGSFREGLAALPRAIAQQLKAPLHLQTPVEAITPEPKGGYLLRSGEQTWHARSVVLATPAYQTAELVAPFQPAIARALATIPYPTVACVVLAYPAGLGRSVRPGFGVLVPRGQGIRTLGTIWSSCLFPQRTPAGWQVFTSIIGGATDPDLASLREEAIVEQVQQDLTRLLDLPAAKARLLGMKVWRRAIPQYIVGYPQQWQQVTHALTQTPGLFLCSNYAEGVALGDRVEHGNRTAAAVAAYLAGGQS
modifications: Synthetic CyPPO10
- Activity (%) (CyPPO10): 48%
- Average injury index (A. thaliana): 2 (Over 20% and less than 30% of the plant was scorched)
